In US8552013B2, “Heterocyclic compounds based on N6-substituted adenine, methods of their preparation, their use for preparation of drugs, cosmetic preparations and growth regulators, pharmaceutical preparations, cosmetic preparations and growth regulators containing these compounds” (USTAV Experimentalni Botaniky Akademie Ved Ceske Republiky, priority 2001, dated 2013):

Key:
[1] = system: human diploid fibroblasts (HCA cells); assay: Senescence, beta-galactosidase staining of human diploid fibroblasts; format: cell-based; settings: for SENESCENT CELLS (%) HCA25: passage 25; for SENESCENT CELLS (%) HCA45: passage 45; for SENESCENT CELLS (%) HCA80: passage 80
Protocol: In this example, human diploid fibroblasts (HCA cells of various passage levels: passage 25—designated HCA25; passage 45—designated HCA45; passage 80—designated HCA80) were stained for β-galactosidase activity. The medium used for cell cultivation was removed, the cells were washed twice in […], and fixed in 2-3 ml of fixing solution comprised of a 2% formaldehyde and 0.2% glutaraldehyde in PBS. The cells were incubated at room temperature for 5 minutes, then washed twice with PBS. The cells were subsequently incubated at 37° C. (without CO2) for 1 to 16 hours in 2-3 ml of a solution comprising potassium ferricyanide (5 mM), potassium ferrocyanide (5 mM), MgCl2 (2 mM), X-gal (5-bromo-4-chloro-3-indolyl-β-D-galactopyranoside) (1 mg/ml), in citric/phosphate buffer, pH 6.0). […] In this experiment, senescent cells, but not other cells were stained blue due to the action of β-galactosidase on the substrate (FIG. 4).

[2] = system: Triticum aestivum cv. Hereward leaf tips; assay: Retention of chlorophyll in excised wheat leaf tips; format: in vivo; settings: for Activity (%) [10^−4 mol · l^−1 BAP = 100%]: chlorophyll retention at the concentration with highest activity
Protocol: Seeds of winter wheat, Triticum aestivum cv. Hereward, were washed under running water for 24 hours and then sown on vermiculite soaked with Knop's solution. They were placed in the grown chamber at 25° C. with a 16/8 h light period at 50 μmol.m^−2.s^−1. After 7 days, the first leaf was fully developed and the second leaf had started to grow. A tip section of the first leaf, approximately 35 mm long, was removed from 5 seedlings and trimmed slightly to a combined weight of 100 mg. The basal ends of the five leaf tips were placed in the wells of a microtiter polystyrene plate containing 150 μl of a cytokinin solution each. The entire plate was inserted into a plastic box lined with paper tissues soaked in distilled water to prevent leaf sections from drying out. After a 96 h incubation in the dark at 25° C., the leaves were removed and chlorophyll extracted by heating at 80° C. for 10 min in 5 ml of 80% ethanol (v/v). The sample volume was then restored to 5 ml by the addition of 80% ethanol (v/v). The absorbency of the extract was recorded at 665 nm. In addition, chlorophyll extracts from fresh leaves and leaf tips incubated in deionised water were measured. From the obtained data, the concentration with highest activity was selected for each compound tested. Relative activity of the compound at this concentration was calculated (Tab. 6). The activity obtained for 10^−4 M 6-benzylaminopurine (BAP) was postulated as 100%. The values shown are means of five replicates and the whole experiment was repeated twice. The cytokinins to be tested were dissolved in dimethylsulfoxide (DMSO) and the solution brought up to 10^−3M with distilled water. This stock was further diluted in distilled water to concentrations ranging from 10^−8M to 10^−4M.

SMILES: NCc1ccc(Cl)c(N)c1N [2,3-diamino-4-chlorobenzylamine]
- SENESCENT CELLS (%) HCA25 [1]: 4%
- SENESCENT CELLS (%) HCA45 [1]: 3%
- SENESCENT CELLS (%) HCA80 [1]: 17%

SMILES: Oc1c(Cl)ccc(CNc2ncnc3nc[nH]c23)c1O [2,3-dihydroxy-4-chlorobenzylamino, 6-(2,3-dihydroxy-4-chlorobenzylamino)purine]
- SENESCENT CELLS (%) HCA25 [1]: 3%
- SENESCENT CELLS (%) HCA45 [1]: 3%
- SENESCENT CELLS (%) HCA80 [1]: 14%

SMILES: COc1ccc(CNc2ncnc3nc[nH]c23)c(O)c1O [2,3-dihydroxy-4-methoxybenzylamino, 6-(2,3-dihydroxy-4-methoxybenzylamino)purine]
- SENESCENT CELLS (%) HCA25 [1]: 3%
- SENESCENT CELLS (%) HCA45 [1]: 4%
- SENESCENT CELLS (%) HCA80 [1]: 17%

SMILES: Oc1cc(CNc2ncnc3nc[nH]c23)c(O)cc1Cl [2,5-dihydroxy-4-chlorobenzylamino, 6-(2,5-dihydroxy-4-chlorobenzylamino)purine]
- SENESCENT CELLS (%) HCA25 [1]: 5%
- SENESCENT CELLS (%) HCA45 [1]: 4%
- SENESCENT CELLS (%) HCA80 [1]: 23%

SMILES: COc1cc(O)c(CNc2ncnc3nc[nH]c23)cc1O [2,5-dihydroxy-4-methoxybenzylamino, 6-(2,5-dihydroxy-4-methoxybenzylamino)purine]
- SENESCENT CELLS (%) HCA25 [1]: 5%
- SENESCENT CELLS (%) HCA45 [1]: 3%
- SENESCENT CELLS (%) HCA80 [1]: 22%

SMILES: Oc1cc(Cl)cc(O)c1CNc1ncnc2nc[nH]c12 [2,6-dihydroxy-4-chlorobenzylamino, 6-(2,6-dihydroxy-4-chlorobenzylamino)purine]
- SENESCENT CELLS (%) HCA25 [1]: 3%
- SENESCENT CELLS (%) HCA45 [1]: 3%
- SENESCENT CELLS (%) HCA80 [1]: 16%

SMILES: COc1cc(O)c(CNc2ncnc3nc[nH]c23)c(O)c1 [2,6-dihydroxy-4-methoxybenzylamino, 6-(2,6-dihydroxy-4-methoxybenzylamino)purine]
- SENESCENT CELLS (%) HCA25 [1]: 4%
- SENESCENT CELLS (%) HCA45 [1]: 3%
- SENESCENT CELLS (%) HCA80 [1]: 13%

SMILES: CC(=O)Oc1ccccc1CNc1ncnc2nc[nH]c12 [2-acetoxybenzylamino, 6-(2-acetoxybenzylamino)purine]
- SENESCENT CELLS (%) HCA25 [1]: 6%
- SENESCENT CELLS (%) HCA45 [1]: 5%
- SENESCENT CELLS (%) HCA80 [1]: 32%

SMILES: CC(=O)c1ccccc1CNc1ncnc2nc[nH]c12 [2-acetylbenzylamino, 6-(2-acetylbenzylamino)purine]
- SENESCENT CELLS (%) HCA25 [1]: 3%
- SENESCENT CELLS (%) HCA45 [1]: 4%
- SENESCENT CELLS (%) HCA80 [1]: 25%

SMILES: Nc1nc(NCc2cccc(O)c2)c2[nH]cnc2n1 [2-amino-6-(3-hydroxybenzylamino)purine]
- Activity (%) [10^−4 mol · l^−1 BAP = 100%] [2]: 121 (±7) %

SMILES: Nc1cccc(Cl)c1CNc1ncnc2nc[nH]c12 [2-amino-6-chlorobenzylamine, 6-(2-amino-6-chlorobenzylamino)purine]
- SENESCENT CELLS (%) HCA25 [1]: 3%
- SENESCENT CELLS (%) HCA45 [1]: 4%
- SENESCENT CELLS (%) HCA80 [1]: 16%

SMILES: Oc1cccc(CNc2nc(Cl)nc3nc[nH]c23)c1 [2-chlor-6-(3-hydroxybenzylamino)purine]
- Activity (%) [10^−4 mol · l^−1 BAP = 100%] [2]: 140 (±13) %
- concentration with highest activity ([2]; wheat leaf tips, 96 h in the dark): 10^−4 mol · l^−1

SMILES: Oc1c(Cl)cccc1CNc1ncnc2nc[nH]c12 [2-hydroxy-3-chlorobenzylamino, 6-(2-hydroxy-3-chloroxybenzylamino)purine]
- SENESCENT CELLS (%) HCA25 [1]: 4%
- SENESCENT CELLS (%) HCA45 [1]: 3%
- SENESCENT CELLS (%) HCA80 [1]: 14%
